Laboratory results from patent publication US20250120967A1, “TYROSINE KINASES INHIBITORS AND USES THEREOF” (GREAT NOVEL THERAPEUTICS BIOTECH & MEDICALS CORPORATION, priority 2023, published 2025).
Values joined by “and” are separate entries in the source; they are usually repeats but may differ in a detail not shown here. Equal values may be shown once.

Tests used:
[1] = system: CT26 cells; test: Tumor rechallenge test, CT26 rechallenge; type: in vivo, Balb/c mice; details: Table 9, CT26 rechallenge, GNTbm-38-K30 20 mg/kg, Regorafenib 30 mg/kg, Cbo-23 30 mg/kg
Protocol: (§1) Mice evaluated as CR/PR can enter the rechallenge study. All mice with PR/CR response went through rechallenges with CT26 cells on the contralateral side. The first rechallenge was performed after second assessment with a tumor dose of 1×10^6 cells per mouse. After 7 days of growth, CT26 and LLC1 tumor sizes were used as the baseline. Tumor growth was monitored for a duration of 11 days, and on the 11th day, a tumor size assessment was conducted relative to the baseline. If both of the following criteria are met, the response will be considered as relapse: first, the tumor size was over 1.5 folds when compared to that of baseline; second, the tumor volume was over 150 mm^3.
(§2) If both of the following criteria are met, the response will be considered as relapse: first, the tumor size over 1.5 folds when compared to that of baseline; second, the tumor volume at day 67 was over 150 mm^3.
(§3) If both of the following criteria are met, the response will be considered as relapse: first, the tumor size was over 1.5 folds when compared to that of baseline; second, the tumor volume at day 56 was over 150 mm^3.

[2] = system: LLC1; test: Tumor rechallenge test, LLC1 rechallenge; type: in vivo; details: Table 9, LLC1 rechallenge, GNTbm-38-K30 20 mg/kg, Regorafenib 30 mg/kg, Cbo-23 30 mg/kg
Protocol: as §1, §2, §3

Compound: COc1cc2nccc(Oc3ccc(NC(=O)C4(C(=O)Nc5ccc(F)cc5)CC4)cc3F)c2cc1Oc1ccc(N)cc1F [Cbo-23]
- Day 56 Fold change ([1]; individual mice, vs Day 45): 2.6 and 0
- Day 45 mm^3 (baseline tumor size) ([1]; individual mice): 119.17 mm^3 and 60.82 mm^3
- Day 56 mm^3 ([1]; individual mice): 309.20 mm^3 and 0 mm^3
- Score ([1]; individual mice): + (If both of the following criteria are met, the response will be considered as relapse: first, the tumor size was over 1.5 folds when compared to that of baseline; second, the tumor volume at day 56 was over 150 mm^3.)
- Immunity Percentage [1]: 50% (1/2)
- Day 56 Fold change ([2]; individual mice, vs Day 45): 2.5 and 1.0
- Day 45 mm^3 (baseline tumor size) ([2]; individual mice): 163.76 mm^3 and 173.53 mm^3
- Day 56 mm^3 ([2]; individual mice): 403.54 mm^3 and 169.80 mm^3
- Score ([2]; individual mice): + (If both of the following criteria are met, the response will be considered as relapse: first, the tumor size was over 1.5 folds when compared to that of baseline; second, the tumor volume at day 56 was over 150 mm^3.)
- Immunity Percentage [2]: 50% (1/2)
